Experimental data from patent US9028887B2, “Method improve spatial memory via pterostilbene administration” (The United States of America, as represented by the …, priority 2007, dated 2015).

How the values were obtained:
[1] = system: M1-transfected COS-7 cells; experiment: Calcium recovery in M1-transfected COS-7 cells after dopamine treatment and oxotremorine-induced depolarization; format: cell-based, African green monkey; conditions: 10 μg/ml pre-treatment 45 min, then 1 mM dopamine 4 hours; 750 μM oxotremorine depolarization
Procedure: COS-7 cells, a cell line derived from African green monkey kidney, were grown in Dulbecco's Modified Eagle's Medium (D-MEM) supplemented with 10% fetal bovine serum (FBS) and containing 100 U/ml penicillin and 100 μg/ml streptomycin sulfate. Twenty four hours prior to transfection, cells were harvested with trypsin, counted, and plated on […] tissue culture plates at 5×10^6 cells/plate. Cells were transiently transfected with rat muscarinic receptor subtype 1 DNA by the DEAE-dextran method. After transfection, cells were incubated 2.5 hours in growth medium containing 80 μM chloroquine to minimize degradation of the DNA. Transfected cells were then maintained in growth medium for 48 hours, harvested with trypsin, plated to coverslips in 35 mm plates for calcium imaging, and incubated overnight.
Dis. 6:403-411, and hereby incorporated by reference. The BB extract and stilbenes were dissolved in growth media and cells were subsequently incubated for 45 minutes at 37° C. with the treated growth medium, followed by dopamine administration for 4 hours. Following these incubations, the cells were washed three times with extract-free growth medium prior to testing.
Calcium imaging was carried out using a Medical Systems Corp. open perfusion micro-incubator (37° C.) with temperature control that was mounted on the stage of a Nikon Eclipse TE200U microscope and illuminated with a fluorescent light source. Transfected cells were loaded with Fura-2/acetoxymethyl ester (2 μM) in loading medium (99% DMEM 1% FES) for 40 minutes at 37° C. with 5% CO2.
Real time analyses of calcium flux prior to and following 750 μM oxotremorine-induced depolarization were then carried out using Simple PCI software (Compix, Inc. Mars, Pa.). Response and recovery were then determined for each sample. […] Recovery was determined by assessing the time (within 300 sec) for the Ca^2+ levels to return to 20% of the increase following depolarization in the cells that responded. Data was analyzed by Kruskal-Wallis one-way analysis of variance and Mann-Whitney U tests.

[2] = Pterostilbene in subject hippocampal tissue by GC-MS; format: in vivo, rat
Procedure: Hippocampal brain tissue was extracted from subjects that were euthanized 2-3 weeks following Morris Water Maze testing. The tissue samples were stored at −80° C. and thawed in ice prior to extraction. Tissues were homogenized in 500 μL of phosphate buffer (pH 7.4) then centrifuged (7000 g, 4° C., 15 min). The supernatant was collected and homogenization was repeated. The combined supernatant was extracted with ethyl acetate (500 μL×2). The ethyl acetate extract was dried under a stream of nitrogen.
The dried extract was treated with 30 μL of N,O-bis[trimethylsilyl]trifluoroacetamide:dimethylformamide (BSTFA:DMF, 1:1; Pierce Biotechnology, Inc., Rockford, Ill.) and heated at 70° C. for 40 min. The derivatized sample was used for analysis of pterostilbene by gas chromatography-mass spectrometry (GC-MS). GC-MS was performed on a JEOL GCMate II Instrument (JEOL USA Inc., Peabody, Mass.) using as a J&W DB-5 capillary column (0.25 mm internal diameter, 0.25 μm film thickness, 30 m length; Agilent Technologies, Foster City, Calif.). […] The carrier gas was ultrahigh purity helium, at 1 mL/min flow rate. […] Pterostilbene was determined and quantified from a reconstructed ion chromatogram using m/z 328, 313, 297 and 147. Quantitation was performed from calibration curve of a standard sample of pterostilbene (retention time, 12.5 min). […]

striatal slices = experiment: Oxotremorine enhancement of K+-evoked dopamine release from striatal slices of diet-fed rats; format: in vivo, rat; conditions: for dopamine release (oxotremorine-enhanced striatal K+-ERDA), H2O2-treated vs non-H2O2-treated: 50 μM H2O2, 500 μM oxotremorine
Text: The muscarinic enhancement of K^+-evoked dopamine release (K^+-ERDA) from superfused striatal slices is an indicator of receptor sensitivity and striatal function and is sensitive to aging and oxidative stress as disclosed in Joseph et al., 1988. Brain Res., 454:140-8: Joseph et al., 1988. Brain Res., 454:149-55; Joseph J., et al., 1990. Brain Res., 537:40-48; Joseph et al., 1996. Free Radic. Biol. Med., 20: 821-30 and herein incorporated by reference. Additionally, muscarinic enhancement of dopamine release is sensitive to dietary supplementation as disclosed in Joseph et al., 1998. J. Neurosci., 18: 8047-8055; Joseph et al., 1999. J. Neurosci., 19: 8114-8121; Youdim et al., 2000. Nutr Neurosci., 3: 383-97; Shukitt-Hale et al., 2005. Age., 27: 49-57; Shukitt-Hale et al., 2006. Nutrition, 22: 295-302 and herein incorporated by reference. The protective capacity of the striatal tissue obtained from the control and supplemented groups were assessed by examining differences in the oxotremorine-enhancement of striatal K^+-ERDA. Dopamine release was conducted 2-3 weeks following behavioral testing on freshly dissected and cross cut (300 μm, McIlwain tissue chopper) striatal slices from subject brains that were fed a high dose, low dose and control diet. The slices were placed in small glass vials containing modified Krebs-Ringer basal release medium (BRM) that had been bubbled for 30 min with 95% O2/5% CO2 and containing 21 mM NaHCO3, 3.4 mM glucose, 1.3 mM NaH2PO4, 1 mM EGTA, 0.93 mM MgCl2, 127 mM NaCl and 2.5 mM KCl (low KCl) (pH 7.4). Half of the tissue was treated with 50 μM […] to assess the effect of diet under conditions of oxidative stress. […] Following this equilibration period, the medium was switched to one containing (in mM) KCl 30 (high KCl), CaCl2.2H2O 1.26 (in place of EGTA), NaCl 57, and 0 or 500 μM oxotremorine and then the enhancement of K^+-ERDA was assessed. Dopamine release was quantitated by HPLC coupled to electrochemical detection and expressed as pmoles/mg protein as determined by the Lowry procedure.

cyclooxygenase-1 = cyclooxygenase-1 (Homo sapiens, UniProt P23219); conditions: Rimando et al., 2002; cited from earlier work
Chain of cyclooxygenase-1 (P23219 24-599, species assumed): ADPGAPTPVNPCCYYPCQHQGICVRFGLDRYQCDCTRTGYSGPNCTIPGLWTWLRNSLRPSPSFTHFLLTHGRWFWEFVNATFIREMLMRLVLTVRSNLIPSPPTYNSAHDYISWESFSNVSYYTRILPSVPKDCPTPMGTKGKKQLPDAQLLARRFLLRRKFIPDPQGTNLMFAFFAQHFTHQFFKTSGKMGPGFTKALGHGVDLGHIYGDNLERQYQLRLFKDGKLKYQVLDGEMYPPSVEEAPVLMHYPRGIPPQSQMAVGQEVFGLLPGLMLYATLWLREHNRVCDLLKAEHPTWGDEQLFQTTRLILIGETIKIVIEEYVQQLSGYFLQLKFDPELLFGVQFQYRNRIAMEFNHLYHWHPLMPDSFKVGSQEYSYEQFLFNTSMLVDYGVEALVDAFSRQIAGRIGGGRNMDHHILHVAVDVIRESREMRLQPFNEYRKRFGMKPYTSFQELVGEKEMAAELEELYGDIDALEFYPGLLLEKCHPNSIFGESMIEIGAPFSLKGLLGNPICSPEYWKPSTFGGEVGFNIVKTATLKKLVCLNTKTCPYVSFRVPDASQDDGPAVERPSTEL

weanling male F344 rats = conditions: Suh et al., 2007; cited from earlier work
[3] = system: inducible nitric oxide synthase (iNOS); conditions: HT-29 human adenocarcinoma cell lines; Suh et al., 2007; cited from earlier work
[4] = compared with resveratrol; Rimando et al., 2002; Stivala et al., 2001; cited from earlier work

- hippocampal pterostilbene ([2]; high dose diet 0.016% (10 mg/kg), 12-13 weeks on diet): 1.352±0.465 ng/tissue sample
SMILES: COc1cc(/C=C/c2ccc(O)cc2)cc(OC)c1 [pterostilbene, trans-3,5-dimethoxy-4′-hydroxystilbene]
- protection against dopamine-induced decreases in Ca2+ Recovery [1]: protected against the dopamine-induced decreases in Recovery
- hippocampal pterostilbene detectability ([2]; low dose diet 0.004% (2.5 mg/kg)): only detectable in the high dose pterostilbene group
- dopamine release (oxotremorine-enhanced striatal K+-ERDA) among diet groups (striatal slices; basal conditions (no H2O2), low and high dose vs control diet, p>0.05): no differences among the diet groups
- dopamine release (oxotremorine-enhanced striatal K+-ERDA), H2O2-treated vs non-H2O2-treated (striatal slices; high dose diet 0.016%): no differences were seen following H2O2 treatment
- dopamine release (oxotremorine-enhanced striatal K+-ERDA), H2O2-treated vs non-H2O2-treated (striatal slices; low dose diet 0.004%): no differences were seen following H2O2 treatment
- inhibition of cyclooxygenase-1 (cyclooxygenase-1): moderate inhibition
- azoxymethane-induced colonic aberrant crypt foci growth (weanling male F344 rats): suppressed azoxymethane-induced colonic aberrant crypt foci growth
- expression of iNOS [3]: inhibits the expression of inducible nitric oxide synthase (iNOS)
- antioxidant activity [4]: antioxidant activity similar to that of resveratrol
